Source: patent publication EP1409705B1, “A PROCESS FOR THE PRODUCTION OF AN INHIBITOR OF HUMAN PLATELET AGGREGATION AND SOYBEAN LIPOXYGENASE” (Council of Scientific and Industrial Research;an Indian …, priority 2001, dated 2002)

Columns and labels:
soybean lipoxygenase = biological target: T1, soybean lipoxygenase (Glycine max, UniProt P08170); assay: soybean lipoxygenase inhibition; format: biochemical; details: purified inhibitor, red crystals; pH 9; read-out: ic50 activity against soybean lipoxygenase
T1 sequence (P08170 1-839): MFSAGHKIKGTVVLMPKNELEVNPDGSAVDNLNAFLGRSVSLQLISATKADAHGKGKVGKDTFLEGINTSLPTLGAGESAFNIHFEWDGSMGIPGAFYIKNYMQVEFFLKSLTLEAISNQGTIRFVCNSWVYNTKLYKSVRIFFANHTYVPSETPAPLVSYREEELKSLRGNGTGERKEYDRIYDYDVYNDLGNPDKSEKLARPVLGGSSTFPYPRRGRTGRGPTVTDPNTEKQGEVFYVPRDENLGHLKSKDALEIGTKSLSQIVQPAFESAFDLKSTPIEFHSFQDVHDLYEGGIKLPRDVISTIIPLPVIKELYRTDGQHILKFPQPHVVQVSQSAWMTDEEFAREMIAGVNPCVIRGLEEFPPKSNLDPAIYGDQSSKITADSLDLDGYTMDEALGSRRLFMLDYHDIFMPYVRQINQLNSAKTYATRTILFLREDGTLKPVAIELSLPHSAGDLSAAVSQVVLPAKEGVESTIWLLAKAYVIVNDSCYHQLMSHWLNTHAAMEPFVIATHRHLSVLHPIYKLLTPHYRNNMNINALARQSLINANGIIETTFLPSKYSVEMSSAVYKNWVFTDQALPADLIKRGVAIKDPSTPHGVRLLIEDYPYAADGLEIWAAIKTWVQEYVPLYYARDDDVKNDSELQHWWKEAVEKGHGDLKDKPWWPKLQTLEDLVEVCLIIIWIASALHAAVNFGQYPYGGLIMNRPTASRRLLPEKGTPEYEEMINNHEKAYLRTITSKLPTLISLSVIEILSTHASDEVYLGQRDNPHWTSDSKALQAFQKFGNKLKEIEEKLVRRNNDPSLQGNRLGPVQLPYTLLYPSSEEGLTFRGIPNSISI

[1] = system: human platelet aggregation; assay: human platelet aggregation inhibition; format: cell-based; details: purified inhibitor, red crystals, read-out: ic50 activity against human platelet aggregation
[2] = solubility in organic solvents; format: physicochemical; details: in chloroform, dimethylsulfoxide, acetonitrile

In the case of `CCC(=O)C=CC=CC(C)=CC=CC=Cc1ccccc1` [inhibitor, 8-methyl 13-phenyl trideca 4,6,8,10,12 pentene-3-one], the IC50 (soybean lipoxygenase) is reported as 95.6 µM, the IC50 [1] is reported as 234 µM and the Solubility [2] is reported as “highly soluble”.
